System: isolated stratum corneum
Assay: Desquamating effect: counting corneocytes released from isolated stratum corneum
Conditions: compound 2% by weight in 0.1% Triton X100 PBS buffer pH 7.4, 37° C., 24 hours; for Average number of corneocytes released, 1st skin sample: control 1; for Average number of corneocytes released, 2nd skin sample: control 4
Description: The test consists in counting the corneocytes released after incubation of batches of isolated stratum corneum in the presence of three test compounds, corresponding to compounds F, G and K of Table 1.
Compounds F, G and K were each dissolved to 2% by weight in a 0.1% Triton X100 PBS buffer at pH 7.4.
Two different samples of stratum corneum isolated by trypsin/heat from plastic surgeries were used. SCI discs 4 mm in diameter were cut out using a punch and placed in the bottom of a 96-well dish. 50 μl of buffer containing the test compound were added to each well. Controls without compound were prepared. The tests were repeated three times. The incubation was performed at 37° C. with stirring for 24 hours. 10 μl were then taken up and placed in a Mallassez cell. The freed corneocytes were counted by microscope.

CNC(=O)C(Cc1ccccc1)(C(=O)NC)[C@@H]1O[C@H](C)[C@H](O)[C@H](O)[C@H]1O [Compound F, 2-benzyl-N,N′-dimethyl-2-(3,4,5-trihydroxy-6-methyltetrahydropyran-2-yl)malonamide]
Average number of corneocytes released, 1st skin sample: 5 | Average number of corneocytes released, 2nd skin sample: 12

CNC(=O)C(Cc1ccccc1)(C(=O)NC)[C@@H]1OC[C@@H](O)[C@H](O)[C@H]1O [G]
Average number of corneocytes released, 1st skin sample: 13 | Average number of corneocytes released, 2nd skin sample: 12

CNC(=O)C(Cc1ccccc1)(C(=O)NC)[C@@H]1O[C@H](CO)[C@@H](O)[C@H](O)[C@H]1O [K]
Average number of corneocytes released, 1st skin sample: 7 | Average number of corneocytes released, 2nd skin sample: 5
